From publication PMC13408441, “Molecular regulation and physiological role of GOLPH3-mediated Golgi retention” (Nature Communications, 2026)

Tests used:
GOLPH3 = assay: Click-PEG metabolic labeling of GOLPH3 S-acylation; type: cell-based, human; conditions: HeLa, 4 hours
Procedure: Cells are washed twice with serum-free medium with 1 mg/ml BSA and incubated indicated times with either 100 µM palmitic acid azide or 100uM unlabeled palmitic acid (control). Cells are washed 3 times with cold PBS and lysed in 50 mM Tris-HCl (pH 8.0) and 0.5% SDS. Cell lysates are subjected to click reaction with 5 kDa mPEG-Alkyne, CuSO4, TBTA and ascorbic acid for 1 h at room temperature. Samples are boiled with 4x SDS with BME sample buffer, and analyzed by WB on reducing condition on 4–20% SDS-PAGE gels.

[1] = CD thermal denaturation of GOLPH3 proteins; type: physicochemical, human; conditions: CD at 207 nm, 20 to 95 °C at 1 °C/min, 10 μM protein, 100 mM NaCl, 50 mM Tris pH 7.4, 1 mM TCEP
Procedure: (§1) Supplemental Material for Theodoropoulou, Nasrallah, et al 2026
Isothermal titration calorimetry
Isothermal titration calorimetry (ITC) experiments were performed on a MicroCal PEAQ-ITC (Malvern Panalytical), with GOLPH3 variants being in a buffer containing 250 mM NaCl, 50 mM Tris pH 8.0 and 1 mM TCEP. LCS peptides were synthesised and delivered as lyophilised powder (Genscript). The peptides were dissolved in the protein buffer and their concentrations were calculated based upon their absorbance at 280 nm and their corresponding molar extinction coefficient. Experiments consisted of titrations of a single 0.4 µL injection followed […]
GOLPH3 proteins at a 100 μM concentration. Experiments were performed at 25 °C in triplicate (n = 3), with injection duration of 4 s, injection spacing of 150 s, stir speed of 750 rpm, and reference power of 7 μcal/s. Data were processed and plotted using MicroCal PEAQ‐ITC Analysis Software and fitted to a one‐site binding model.
(§2) Circular Dichroism Spectroscopy
(§3) Circular Dichroism Spectra of GOLPH3 proteins (at 10 μM in 100 mM NaCl, 50 mM Tris pH 7.4 and 1 mM TCEP) were collected with a Chirascan V100 (AppliedPhotophysics), using a 1 mm path length cuvette, at 20 °C, in the 200-260 nm range. Thermal denaturation experiments […]
(§4) every 1 °C, with a temperature ramp speed of 1 °C/min and an equilibration time of […]

[2] = CD secondary structure of GOLPH3 proteins (BestSel fits); type: physicochemical, human; conditions: 10 μM, 100 mM NaCl, 50 mM Tris pH 7.4, 1 mM TCEP, 20 °C
Procedure: as §1
Isothermal titration calorimetry […]
as §2, §3, §4
Table S2: Fits of CD spectra to fractions of secondary structure for Golph3 WT and various mutants of it, carried out with the BestSel server

[3] = SEC-MALS of GOLPH3 constructs; type: physicochemical, human; conditions: 12 mg/mL, 250 mM NaCl, 50 mM Tris pH 8.0, 1 mM TCEP
Procedure: Supplemental Material for Theodoropoulou, Nasrallah, et al 2026 buffer. Pooled fractions were concentrated to the required concentration using a MWCO concentrator (Millipore) with a cutoff of 10 kDa.
Size exclusion chromatography coupled to multi-angle light scattering
The molecular weights of the tested constructs were determined by size exclusion chromatography coupled to multi-angle light scattering (SEC-MALS). The mass measurements were performed on a UltiMate3000 HPLC system equipped with a 3 angles miniDAWN TREOS static light scattering detector (Wyatt Technology). The sample volumes of 5−10 μl at a concentration of 12 mg/mL, were applied to a Superdex 200 5/150 GL column (Cytiva) previously equilibrated with 250 mM NaCl, 50 mM Tris pH 8.0, 1 mM TCEP at a flow rate of 0.08 mL/min. The data were analyzed using the ASTRA 6.1 software package (Wyatt technology), using the absorbance at 280 nm and the theoretical extinction coefficient for concentration measurements.
Nuclear Magnetic Resonance (NMR) Spectroscopy
All proteins used for NMR experiments were designed on the GOLPH3-4G background due to its higher stability and solubility. Recombinant proteins were prepared with the isotope enrichment scheme appropriate for each experiment (i.e. 15N-only or 15N, 13C) in 20 mM MES buffer pH 6.5 with 250 mM NaCl and 10% 2H2O. Lower salt, even by 10%, yielded much degraded spectra. […]

PI4KIIIβ = assay: GOLPH3 Golgi localization upon PtdIns(4)P depletion by PIK93; type: cell-based, human; conditions: 1 h
Procedure: Immunofluorescence and confocal microscopy
HeLa GOLPH3-KO cells transfected with the different GOLPH3 constructs were plated at approximately 50% confluency post-transfection. Cells were washed with PBS, fixed in 4% paraformaldehyde (PFA) for 20 minutes, washed with PBS, quenched with 50 mM NH4Cl for 10 minutes, and washed again with PBS. Cells were permeabilized with 0.05% saponin in PBS for 5 minutes. Subsequently, cells were washed and blocked with 3% BSA and 0.05% saponin in PBS for 30 minutes. Primary antibodies (anti-GOLPH3 and anti-GM130) and secondary antibodies were diluted in the same buffer. After blocking, coverslips were washed and incubated with primary antibodies overnight at 4 °C, washed in PBS, and incubated for 45 minutes with secondary antibodies. Cells were then washed and stained with Hoechst for nuclear visualization. Finally, coverslips were mounted in Prolong Glass Antifade Mountant.
Images were acquired using a Zeiss LSM 980 Inverted microscope with a 63X objective, a pinhole size of 1 AU and at least 2 line-averaging or alternatively using Oympus Evident FV4000. Super-resolution images were taken using Zeiss LSM980 with Airyscan2 module, with 63×oil-immersion objectives. Images were processed using Fiji (ImageJ). Cis-to-trans Golgi linescans were recorded using the “Color Profiler” plugin (Color_Profiler. jar, https://imagej.nih.gov/ij/plugins/color -profiler.html) in Fiji software. […]
Figure S5. GOLPH3 regulation by S-acylation
A. Immunofluorescence analysis of GOLPH3 Golgi localization upon acute PtdIns(4)P depletion.
GOLPH3-KO HeLa cells expressing CERT-GFP (cyan) or GOLPH3 variants (yellow) were treated with increasing concentrations of PIK93 for 1 h. Golgi localization, assessed by colocalization with GM130 (magenta), is highlighted in the insets. Scale bar, 5 µm. […]

Question: For `COc1ccc(N2CCN(C(=O)c3cc4c(s3)-c3ccccc3S(=O)(=O)C4)CC2)cc1` [ML349], which “click-PEG signal upon ML348/ML349” value (GOLPH3; 10 µM) is on record?
Answer: increased the click-PEG signal

Question: Which results are given for “GOLPH3 WT: recombinant human GOLPH3 (Q9H4A6, residues 52-298)”?
Answer: Tm / melting temperature [1]: 52.5 °C; % alpha [2]: 41%; % beta parallel [2]: 0%; % beta-antiparallel [2]: 7%; % others [2]: 36%; % turn [2]: 16%; oligomeric state [3]: monomeric

Question: Which results are given for `CC(=O)Nc1nc(C)c(-c2ccc(Cl)c(S(=O)(=O)NCCO)c2)s1` [PIK93]?
Answer: effect of PIK93 on localization of CERT (PI4KIIIβ; CERT-GFP, HeLa): completely relocate CERT to the cytosol; effect of PIK93 on Golgi localization of GOLPH3-C84A (PI4KIIIβ; GOLPH3-KO HeLa expressing C84A): sensitive to PIK93; effect of PIK93 on Golgi localization of GOLPH3 WT (PI4KIIIβ; GOLPH3-KO HeLa expressing GOLPH3 WT, increasing PIK93 concentrations, versus CERT): significantly more resistant to PtdIns(4)P depletion; effect of PIK93 on Golgi localization of GOLPH3-R90L (PI4KIIIβ; GOLPH3-KO HeLa expressing R90L): insensitive to PIK93; effect of PIK93 on Golgi localization of GOLPH3 mutated at Cys108 and Cys122 (PI4KIIIβ; GOLPH3-KO HeLa): strongly Golgi-associated, PIK93-insensitive form

Question: With `CCCCCCCCCC[C@@H]1C(=O)O[C@H]1CCc1ccc(OC)c(OC)c1` [Palmostatin B] as the molecule, how does the “click-PEG signal upon Palmostatin B” value (GOLPH3; 50 µM) read?
Answer: increased the click-PEG signal
